Values quoted from earlier work in patent US20250170053A1, “LONG-LASTING RESORBABLE SUBCUTANEOUS IMPLANT WITH PROLONGED RELEASE OF PRE-CONCENTRATED PHARMACOLOGICALLY ACTIVE SUBSTANCE IN A POLYMER FOR THE ADJUVANT TREATMENT OF EPILEPSY, CHRONIC PAIN AND ANXIETY, AND METHOD” (priority 2022, published 2025).

Assays:
[1] = test system: patients with treatment-resistant epilepsy; conditions: 2 to 50 mg/kg/day oral CBD, twelve weeks
[2] = test system: rodents; conditions: systemic administration
[3] = test system: healthy volunteers and patients with anxiety disorders; conditions: inverted U-shaped dose-response curve in humans

C=C(C)[C@@H]1CCC(C)=C[C@H]1c1c(O)cc(CCCCC)cc1O [CBD, cannabidiol]
individuals who discontinued treatment due to some adverse event [1]: 3%
safety and tolerability of the drug [1]: acceptable
average reduction in seizure frequency ([1]; adjunctive therapy, patients aged one to thirty years): 36.5%
effect in the elevated plus-maze test [2]: antianxiety effects
anxiolytic activity [3]: significant anxiolytic activity
